# In patent publication US20180110754A1, “CENICRIVIROC FOR THE TREATMENT OF FIBROSIS” (Tobira Therapeutics, Inc., priority 2015, published 2018):
# Tests used:
# [1] = system: STAM mouse model of Non-alcoholic Steatohepatitis; test: STAM mouse model of NASH, week 9 (anti-NASH/fibrosis effects); format: in vivo
# Protocol: NASH was induced in male mice by a single injection of 200 μg streptozotocin 2 days after birth (causing impaired glucose control), followed by a high fat diet from 4 weeks of age. […] Animals were sacrificed at 9 weeks of age, and biochemical, gene expression, and histologic evaluations of the liver were conducted.
# [2] = Chronic (3- and 9-month) monkey toxicity studies; format: in vivo; conditions: 1000 mg/kg/day
# [3] = biological target: CCR5 (Homo sapiens, UniProt P51681); test: RANTES-induced CCR5 internalization / CCR5 receptor occupancy in PBMCs (flow cytometry); format: cell-based
# Protocol: The capacity of each drug to inhibit CCR5 or CCR2 internalization was evaluated. Cell-surface expression of CCR5 and CCR2 was assessed by flow cytometry, and fluorescence values were converted into molecules of equivalent soluble fluorescence (MESF).
# [4] = system: APAP-induced acute liver injury; test: Acetaminophen (APAP)-induced acute liver injury in mice; format: in vivo, C57BL/6J mice
# Protocol: Methods: […] […] Liver injury and immune cell phenotypes were analyzed. For mechanistic studies, monocyte-derived macrophage subsets and resident macrophages (Kupffer cells) were sorted by FACS from injured livers and subjected to array-based Nanostring gene expression analysis. […] The human counterparts of both agents are currently tested in phase II trials for different indications (diabetic nephropathy or NASH, respectively).
# [5] = biological target: CCR4 (Homo sapiens, UniProt P51679); test: Inhibition of ligand binding to CCR4
# [6] = Tissue distribution in rodents; format: in vivo
# [7] = Phase 1 studies in healthy volunteer subjects; format: in vivo, human; conditions: single doses up to 800 mg, multiple daily doses up to 200 mg for 10 days
# Description: The frequency and magnitude of transaminase elevations observed across these studies was consistent with the pattern described for Phase 1 studies in scientific literature. […] In both studies and at all doses CVC presented a favorable adverse event profile. […] No clinically relevant changes in ECG parameters or changes for any vital sign parameters were observed during the 48-week treatment period. No apparent dose or exposure relationship for adverse events, laboratory abnormalities (including CPK, ALT, AST and bilirubin elevations) or dose-limiting toxicities were observed.
# [8] = known short half-life; cited from earlier work
# [9] = CVC-low 20 mg/kg/day, week 9, listed as Cenicriviroc
# Chain of CCR5 (P51681 whole entry): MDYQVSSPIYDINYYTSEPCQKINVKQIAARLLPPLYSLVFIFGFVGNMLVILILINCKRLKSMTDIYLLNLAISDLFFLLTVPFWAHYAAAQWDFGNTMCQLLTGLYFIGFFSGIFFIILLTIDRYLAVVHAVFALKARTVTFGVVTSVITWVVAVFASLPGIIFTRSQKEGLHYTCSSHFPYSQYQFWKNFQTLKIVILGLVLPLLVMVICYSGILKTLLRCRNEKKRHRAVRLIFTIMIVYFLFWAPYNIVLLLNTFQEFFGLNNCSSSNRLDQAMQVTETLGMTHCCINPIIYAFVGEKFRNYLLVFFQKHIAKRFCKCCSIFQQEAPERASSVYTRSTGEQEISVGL
# Chain of CCR4 (P51679 whole entry): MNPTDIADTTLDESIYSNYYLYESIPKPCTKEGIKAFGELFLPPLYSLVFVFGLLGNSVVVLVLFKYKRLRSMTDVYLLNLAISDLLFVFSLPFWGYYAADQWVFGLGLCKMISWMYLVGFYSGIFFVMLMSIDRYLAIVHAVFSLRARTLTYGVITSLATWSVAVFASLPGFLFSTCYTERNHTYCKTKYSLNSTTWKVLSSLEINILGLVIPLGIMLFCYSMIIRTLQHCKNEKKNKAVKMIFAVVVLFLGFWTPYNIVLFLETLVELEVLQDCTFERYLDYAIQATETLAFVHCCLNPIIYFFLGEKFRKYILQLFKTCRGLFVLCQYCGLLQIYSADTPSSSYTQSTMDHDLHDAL
compound,measurement,setting,value
"CCCCOCCOc1ccc(-c2ccc3c(c2)/C=C(/C(=O)Nc2ccc([S@@+]([O-])Cc4cncn4CCC)cc2)CCCN3CC(C)C)cc1 [CVC, (S)-8-[4-(2-Butoxyethoxy)phenyl]-1-isobutyl-N-(4-{[(1-propyl-1H-imidazol-5-yl)methyl]sulfinyl}phenyl)-1,2,3,4-tetrahydro-1-benzazocine-5-carboxamide]",Liver triglyceride,"[1]; CVC-low 20 mg/kg/day, week 9",48.5±16.1 mg/g liver
same,Liver weight,"[1]; CVC-low 20 mg/kg/day, week 9",1334 ± 99 mg
same,NAFLD Activity Score (NAS),"[1]; CVC-low 20 mg/kg/day, week 9",4.0±0.6
same,Oil red-positive area (fat deposition area),"[1]; CVC-low 20 mg/kg/day, week 9",6.51±3.88%
same,Plasma ALT,"[1]; CVC-low 20 mg/kg/day, week 9",58±12 U/L
same,Plasma MCP-1,"[1]; CVC-low 20 mg/kg/day, week 9",68 ± 16 pg/mL
same,Plasma MIP-1β,"[1]; CVC-low 20 mg/kg/day, week 9",18 ± 2 pg/mL
same,TUNEL-positive cells,"[1]; CVC-low 20 mg/kg/day, week 9",43.3±2.9%
same,Whole blood glucose,"[1]; CVC-low 20 mg/kg/day, week 9",585 ± 91 mg/dL
same,Body weight,[1]; [9],19.5 ± 2.0 g
same,F4/80-positive area (inflammation area),[1]; [9],4.77 ± 1.02%
same,F4/80 and CD16/32-positive cells,[1]; [9],38.7 ± 7.6%
same,F4/80 and CD206-positive cells,[1]; [9],34.7 ± 6.3%
same,Liver hydroxyproline,[1]; [9],0.63 ± 0.05 μg/mg total protein
same,Liver triglyceride,[1]; [9],48.5 ± 16.1 mg/g liver
same,Liver weight,[1]; [9],1334 ± 99 mg
same,NAFLD Activity Score (NAS),[1]; [9],4.0 ± 0.6
same,Oil red-positive area (fat deposition area),[1]; [9],6.51 ± 3.88%
same,Plasma ALT,[1]; [9],58 ± 12 U/L
same,Plasma MCP-1,[1]; [9],68 ± 16 pg/mL
same,Plasma MIP-1β,[1]; [9],18 ± 2 pg/mL
same,TUNEL-positive cells,[1]; [9],43.3 ± 2.9%
same,Whole blood glucose,[1]; [9],585 ± 91 mg/dL
same,Sirius red-positive area (fibrosis area),"[1]; CVC-low 20 mg/kg/day, week 9, perivascular space included, listed as Cenicriviroc",0.66 ± 0.16%
same,Modified Sirius red-positive area,"[1]; CVC-low 20 mg/kg/day, week 9, perivascular space subtracted, listed as Cenicriviroc",0.29 ± 0.14%
same,Number of animals with Hepatocyte ballooning score 1,"[1]; CVC-low, week 9, n=6",3
same,Number of animals with Hepatocyte ballooning score 2,"[1]; CVC-low, week 9, n=6",3
same,Number of animals with Lobular inflammation score 1,"[1]; CVC-low, week 9, n=6",3
same,Number of animals with Lobular inflammation score 2,"[1]; CVC-low, week 9, n=6",3
same,Number of animals with Steatosis score 1,"[1]; CVC-low, week 9, n=6",6
same,Increase in plasma monocyte chemotactic protein-1 levels,"[1]; high dose 100 mg/kg/day, week 9",1.5 fold
same,Increase in plasma monocyte chemotactic protein-1 levels,"[1]; low dose 20 mg/kg/day, week 9",1.1 fold
same,Inflammation in clinical pathology parameters or any tissue incl. liver (microscopic evaluation),[2],No indication of inflammation
same,Plasma MCP-1 levels over controls,[2]; 3- and 9-month studies,~5 fold
same,receptor occupancy at […],"[3]; CCR5, […] nM for CD4+ and 2.3 nM for CD8+ T-cells, ex vivo in humans",≥ 90%
same,CCR5 receptor occupancy at saturation,[3]; CD4+ T cells,~91%
same,Effective concentration at which saturation of CCR5 was reached,[3]; CD4+ T cells,3.1 nM
same,CCR5 receptor occupancy at saturation,[3]; CD8+ T cells,~90%
same,Effective concentration at which saturation of CCR5 was reached,[3]; CD8+ T cells,2.3 nM
same,Cell-surface expression of CCR5,[3]; in the absence of RANTES,increased cell-surface expression of CCR5
same,Reduction of Ly6C+ monocyte-derived macrophages in liver,[4]; CC14 and APAP models,83-84%
same,Pro-inflammatory Ly6C+ monocytes in blood,"[4]; CC14 and APAP models, p<0.01",significantly reduced
same,Reduction in ALT,[4]; CVC 100 mg/kg oral,75%
same,Reduction in necrotic area fraction,[4]; CVC 100 mg/kg oral,61%
same,Ly6C+ monocyte-derived macrophages in liver (% of liver leukocytes),"[4]; CVC 100 mg/kg oral, 12h after APAP, vehicle 6.01%±0.66",0.95%±0.11
same,Necrotic area fraction,"[4]; CVC 100 mg/kg oral, vehicle 27.9%±4.05",10.9%±3.50
same,Monocyte accumulation in APAP-injured livers,[4]; WT mice,significantly reducing monocyte accumulation
same,Protection from liver damage (ALT levels),"[4]; WT mice, p<0.05 for mNOX, p<0.01 for CVC",significant protection from liver damage
same,Inhibition of ligand binding to CCR4,[5],only weakly inhibited
same,Tissue distribution,[6],"high distribution in the liver, mesenteric lymph node, and intestine"
same,Tolerability,[7],generally well tolerated
same,Half-life in mice,[8],~2 h
